Experimental data taken from US12595222B2, “Curcuminoids, analogs thereof, and methods of making the same” (WiSys Technology Foundation, Inc., priority 2021, dated 2026).

System: Epstein-Barr virus (EBV)
Experiment: EBV reactivation (viral BZLF1 gene expression) inhibition
Format: cell-based
Settings: 3 mM; compared to low expression in unactivated cells
Experimental: FIG. 20B illustrates EBV reactivation in the presence of the curcuminoids shown in FIG. 28A, measured by increased viral BZLF1 gene expression, is induced with a known reactivating drug, sodium butyrate (3 mM) compared to low expression in unactivated cells, in accordance with various embodiments. EBV reactivation was inhibited by five novel curcuminoids (10 μM).

Structure (SMILES): CCCC(=O)[O-].[Na+] [sodium butyrate]
- EBV reactivation, measured by increased viral BZLF1 gene expression: induced
